From patent US11980620B2, “Compounds and methods for treatment of Diamond Blackfan anemia” (THE CHILDREN'S MEDICAL CENTER CORPORATION, priority 2017, dated 2024)
Entries after “also recorded” stand apart in the source; their conditions may differ.

Columns and labels:
Format in all cases: in vivo
[1] = test system: rps29+/- zebrafish embryos; assay: Hemoglobin (benzidine) staining in rps29 mutant zebrafish embryos
Procedure: (§1) (FIG. 10A) SMER28 rescues RBC output in rps29^+/− zebrafish embryos. The level of hemoglobin in the yolk sac was visualized 40hpf with benzidine staining. Images are representative of the proportion of embryos indicated (of total counted). (FIG. 10B) Quantitation of SMER28 rescue for a range of 0.1-1 μM, with embryos grouped by high, medium, and low levels of hemoglobin staining. (FIG. 10C) Peripheral blood (PB) RBC counts and hematocrit in mice with irradiation-induced anemia. Mice were treated with the PEG400-based vehicle containing DMSO (VEH) (n=11), 1 mg/kg Dex (sodium-phosphate) (n=13), or 10 mg/kg SMER28 (n=9) for 3 weeks, bled, and assessed. Data are combined from 3 independent experiments. (FIG. 10D) Erythroid cells as proportion of the human graft in mice transplanted with DBA CD34-5F progenitors, and treated as in (FIG. 1c). (FIG. 10E) Levels of human engraftment in NSG mouse bone marrow (BM) transplanted with CB CD34^+ cells. Mice were treated with DMSO plus vehicle (VEH) (n=10), 1 mg/kg Dex (sodium-phosphate) (n=6), or 2 mg/kg SMER28 (n=11) for 4 weeks. (FIG. 10F) The proportion of erythroid, myeloid, and lymphoid (B cells) lineages within the human graft in vehicle- and SMER28-treated mice transplanted with CB CD34^+ cells. Only the effect on the erythroid lineage was significant. Data in FIGS. 10E-10G are pooled from 2 independent experiments. […]

DBA CD34-5F cells = assay: NSG mice transplanted with DBA CD34-5F progenitors, erythroid proportion of human graft
Procedure: as §1

[2] = Dose escalation tolerability in mice; conditions: dose escalation up to 20 mg/kg
Source text: In following evaluation, the effects of administration of SMER28 to mice with irradiation-induced anemia, a model that enables dose-finding and initial testing of safety and bioactivity. […] To assess bioactivity, we measured the levels of autophagic marker LC3 in treated animals. […] (FIG. 10C). We tested the effect of this compound on human cells by treating NSG mice transplanted with human CD34-5F and CB cells. SMER28 increased the output of GlyA^+ RBCs from DBA CD34-5F cells (FIG. 10D).
Drug treatments. SMER28 was purchased from Tocris and diluted in 10 mM aliquots in DMSO. The final concentration for CD34-5F and CB CD34^+erythroid treatments was 0.2-10 μM as indicated in the text. The final concentration for K562 cell treatments was 20-40 μM. Ferric citrate (1-50 μM) and deferoxamine (100-200 μM) (Sigma) were dissolved in PBS and added on days 0-4 of “expansion” culture, and washed off prior to erythroid stage I (days 4-9) differentiation. For in vivo experiments, SMER28 aliquots were diluted in vehicle solution: 30% PEG-400, 5% propylene glycol, and 0.5% Tween-80. Dosing for human xenograft experiments was 2 mg/kg; for mouse models 10-20 mg/kg. Dexamethasone was purchased as Dex-sodium phosphate (DexSP) water-soluble formulation (Santa Cruz), and diluted in PBS vehicle (1 mg/kg). […]

C=CCNc1ncnc2ccc(Br)cc12 [SMER28, 6-Bromo-N-2-propenyl-4-quinazolinam]
embryos showing high levels of hemoglobin ([1]; 1 μM, 40 hpf, vehicle-treated controls 20%, p<0.05): Over 50%
hemoglobin staining / RBC output in yolk sac ([1]; treated for 40 hpf, benzidine staining): robust increase; also recorded: rescues
output of GlyA+ RBCs from DBA CD34-5F cells (DBA CD34-5F cells): increased
tolerability / overt toxicity [2]: well tolerated
